By IC50 is commonly meant the concentration needed to halve the response being measured.

The results in this text go back to ChEMBL document CHEMBL3352446, “Sulforaphane homologues: Enantiodivergent synthesis of both enantiomers, activation of the Nrf2 transcription factor and selective cytotoxic activity” (Eur J Med Chem, 2014).

For series [1], the system named is MRC5. Description: Cytotoxicity against human MRC5 cells assessed as reduction in cell viability after 48 hrs by MTT assay. To be noted: MRC5, 48 h. Type of series: cell-based.
The test system of series [2] is A549. Description: Cytotoxicity against human A549 cells assessed as reduction in cell viability after 48 hrs by MTT assay. To be noted: A549, 48 h. Type of series: functional, cell-based. In general terms: Formazan colour is commonly taken as a measure of viable cells.
The subject of series [3] is HaCaT. Description: Toxicity in human HaCaT cells expressing rat NQO1 assessed as reduction in cell viability at 50 uM incubated for 24 hrs by MTT assay. Type of series: cell-based.
Series [4] relates to HaCaT. Description: Toxicity in human HaCaT cells expressing rat NQO1 assessed as reduction in cell viability at 500 uM incubated for 24 hrs by MTT assay. The series is classed as cell-based.
Series [5] concerns the target T1, Nuclear factor erythroid 2-related factor 2 (Homo sapiens) (UniProt Q16236).
T1 sequence (whole entry): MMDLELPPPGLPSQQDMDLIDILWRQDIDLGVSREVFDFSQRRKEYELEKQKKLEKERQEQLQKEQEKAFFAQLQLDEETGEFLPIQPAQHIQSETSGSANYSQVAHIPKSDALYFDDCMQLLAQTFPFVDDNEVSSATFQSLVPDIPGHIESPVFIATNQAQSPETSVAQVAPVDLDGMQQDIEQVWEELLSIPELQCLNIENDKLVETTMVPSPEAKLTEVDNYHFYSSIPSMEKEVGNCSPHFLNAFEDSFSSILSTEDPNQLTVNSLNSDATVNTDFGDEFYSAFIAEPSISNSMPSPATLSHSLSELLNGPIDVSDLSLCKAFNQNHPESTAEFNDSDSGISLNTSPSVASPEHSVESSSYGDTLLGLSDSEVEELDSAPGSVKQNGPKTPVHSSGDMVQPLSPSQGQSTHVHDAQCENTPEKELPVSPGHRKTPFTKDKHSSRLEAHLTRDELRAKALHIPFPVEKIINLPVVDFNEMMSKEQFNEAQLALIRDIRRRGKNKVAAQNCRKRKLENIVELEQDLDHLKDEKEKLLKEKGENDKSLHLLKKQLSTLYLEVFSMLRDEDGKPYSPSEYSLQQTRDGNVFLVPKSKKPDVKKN
Description: Activation of NRF2 in human HaCaT cells expressing rat NQO1 assessed as induction of NQO1 expression at 50 nM to 5 uM incubated for 24 hrs by ARE-driven luciferase reporter gene assay. Type of series: cell-based.

For series [6], the system named is A549. Description: Cytotoxicity against human A549 cells assessed as reduction in cell viability at 10 uM after 48 hrs by inverted microscopy. The series is classed as functional.
The nature of series [7]: Cytotoxicity against human MRC5 cells assessed as cell viability at 10 uM after 48 hrs by inverted microscopy. Type of series: cell-based. Particulars: read-out: Activity.
Series [8] relates to MRC5. Description: Cytotoxicity against human MRC5 cells assessed as reduction in cell viability at 10 uM after 48 hrs by inverted microscopy. Type of series: cell-based. Particulars: mrc5, 48 h.

Molecules are shown by their SMILES. The source made the active and inactive calls. The rule behind the calls is not given here.

On to `CC(O)C(=O)O` (configuration not stated) [LACTIC ACID], for which the half-maximal inhibitory concentration (IC50) worked out at 23.9 µM in the series on MRC5 [1] and 26.6 µM with A549 [2].
Take `C[S@+]([O-])CCCCCN=C=S`: the IC50 in the series on MRC5 [1] was 20.2 µM; in the series on A549 [2], 12 µM. Also, the Activity result with HaCaT [3] and in the series on HaCaT [4] was “Toxic” in each case. In addition, the result in series [5] was Active.
As for `C[S@@+]([O-])CCCCCCN=C=S`, in series [5], the outcome was Active.
For `C[S@@](=O)CCCCN=C=S` [SULFORAPHANE], the IC50 in the series on MRC5 [1] stood at 46.6 µM; with A549 [2], 19.6 µM. The Activity result in the series on HaCaT [3] and in the series on HaCaT [4] was “Toxic” each time. The result in series [5] was Active.
For the molecule `CCCC[S@@+]([O-])CCCCN=C=S`, the IC50 is 17.4 µM in the series on MRC5 [1] and 9.77 µM in the series on A549 [2]. Also, the Activity result in the series on HaCaT [3] and in the series on HaCaT [4] was “Toxic” in each case. The outcome in series [5] was Active. Further, the “growth inhibition (GI)” value with A549 [6] is “Active”. Further, the viability at 48 h, 10 µM in series [7] amounted to 90%. Moreover, in the series with MRC5 [8], the “growth inhibition (GI)” value was “Non-toxic”.
In the case of `C[S@+]([O-])CCCCCCN=C=S`, the result in series [5] was Active.
Consider `CC[S@@+]([O-])CCCCN=C=S` (racemic), for which the IC50 in the series with MRC5 [1] amounted to 40.8 µM; in the series with A549 [2], 19.8 µM. The Activity result in the series on HaCaT [3] and in the series on HaCaT [4] was “Toxic” in each case. Moreover, in series [5], the outcome was Active.
Turning to `C[S@@+]([O-])CCCCCN=C=S`, the IC50 was 18.5 µM with MRC5 [1] and 9.62 µM with A549 [2]. Further, the Activity result in the series with HaCaT [3] and in the series on HaCaT [4] was “Toxic” throughout. Moreover, in series [5], the result was Active.
